Laboratory results published in publication PMC12383145, “Fluorescent Peptides Internalize HeLa Cells and Kill Multidrug-Resistant Clinical Bacterial Isolates” (Antibiotics, 2025).
Residues, ends and D or L forms follow the SMILES beside them. *: point of attachment. RhodamineB = CCN(CC)c1ccc2c(-c3ccccc3C(=O)*)c3ccc(=[N+](CC)CC)cc-3oc2c1

Columns and labels:
Type in all cases: cell-based
E. coli ATCC 25922 = conditions: ATCC 25922, 24 h
P. aeruginosa ATCC 27853 = conditions: ATCC 27853, 24 h
[1] = tested on: K. pneumoniae ATCC 700603; conditions: ATCC 700603, 24 h
E. faecalis ATCC 29212 = conditions: ATCC 29212, 24 h
S. aureus ATCC 25923 = conditions: ATCC 25923, 24 h
[2] = tested on: S. aureus clinical isolate 109095; conditions: clinical isolate 109095, 24 h
[3] = tested on: E. faecalis clinical isolate 82; conditions: clinical isolate 82, 24 h
[4] = tested on: E. coli clinical isolate 1004 (susceptible); conditions: clinical isolate 1004 (susceptible, 24 h)
[5] = tested on: E. coli clinical isolate 301755 (MDR); conditions: clinical isolate 301755 (MDR, 24 h)
[6] = tested on: E. faecalis clinical isolate 179; conditions: clinical isolate 179, 24 h
[7] = tested on: E. coli clinical isolate 129797 (resistant); conditions: clinical isolate 129797 (resistant, 24 h)
[8] = tested on: E. faecalis clinical isolate 213; conditions: clinical isolate 213, 24 h
[9] = tested on: S. aureus clinical isolate 124653; conditions: clinical isolate 124653, 24 h
MCF-7 cells = experiment: MTT cytotoxicity assay in MCF-7 cells; conditions: 200 µg/mL, 2 h
Description: An MTT assay was performed in MCF-7 cells with FAM-1 (FAM-RWQWRWQWR) and RhB-1 (RhB-RWQWRWQWR) peptides following a 2 h treatment.

erythrocytes = experiment: Hemolysis assay; conditions: 2 h
Hemolysis assay = experiment: Hemolysis assay
[10] = tested on: S. aureus clinical isolate 11719; conditions: clinical isolate 11719, 24 h

CCN(CC)c1ccc2c(-c3ccccc3C(=O)N[C@@H](CCCNC(=N)N)C(=O)N[C@@H](Cc3c[nH]c4ccccc34)C(=O)N[C@@H](CCC(N)=O)C(=O)N[C@@H](Cc3c[nH]c4ccccc34)C(=O)N[C@@H](CCCNC(=N)N)C(=O)N[C@@H](Cc3c[nH]c4ccccc34)C(=O)N[C@@H](CCC(N)=O)C(=O)N[C@@H](Cc3c[nH]c4ccccc34)C(=O)N[C@@H](CCCNC(=N)N)C(N)=O)c3ccc(=[N+](CC)CC)cc-3oc2c1 [RhB-1, RhB-RWQWRWQWR] (RhodamineB-RWQWRWQWR-NH2)
0.5: Therapeutic index (erythrocytes)
52 µM: Minimal bactericidal concentration (MBC) (E. faecalis ATCC 29212) | Minimal inhibitory concentration (MIC) (E. faecalis ATCC 29212) | Minimal bactericidal concentration (MBC) (S. aureus ATCC 25923) | Minimal inhibitory concentration (MIC) [10]
> 105 µM: Minimal bactericidal concentration (MBC) (E. coli ATCC 25922) | Minimal inhibitory concentration (MIC) (E. coli ATCC 25922) | Minimal bactericidal concentration (MBC) (P. aeruginosa ATCC 27853) | Minimal inhibitory concentration (MIC) (P. aeruginosa ATCC 27853) | Minimal bactericidal concentration (MBC) [1] | Minimal inhibitory concentration (MIC) [1] | Minimal bactericidal concentration (MBC) [4] | Minimal inhibitory concentration (MIC) [4] | Minimal bactericidal concentration (MBC) [5] | Minimal inhibitory concentration (MIC) [5] | Minimal bactericidal concentration (MBC) [6] | Minimal inhibitory concentration (MIC) [6] | Minimal bactericidal concentration (MBC) [7] | Minimal inhibitory concentration (MIC) [7] | Minimal bactericidal concentration (MBC) [8] | Minimal inhibitory concentration (MIC) [8]
19%: hemolysis (Hemolysis assay; Percentage of hemolysis)
26 µM: Minimal inhibitory concentration (MIC) (S. aureus ATCC 25923) | Minimal inhibitory concentration (MIC) [2] | Minimal inhibitory concentration (MIC) [3]
105 µM: Minimal bactericidal concentration (MBC) [2] | Minimal bactericidal concentration (MBC) [3] | Minimal bactericidal concentration (MBC) [9] | Minimal inhibitory concentration (MIC) [9] | Minimal bactericidal concentration (MBC) [10]
8%: cell population remaining (MCF-7 cells)
0.2: selectivity ratio (Hemolysis assay)
